We go through 2 molecules from patent publication US10106853B2, “CUL4B as predictive biomarker for cancer treatment” (CORNELL UNIVERSITY, priority 2012, dated 2018).

One data set deals with T1, CUL4B-Top1 interaction (Homo sapiens, UniProt P11387).
T1 construct: Top1 was co-immunoprecipitated with CUL4B in the presence of CPT; host or cells: BT474 human breast cancer cells
The experiment in a line: Co-immunoprecipitation of CUL4B and Top1 in BT474 cells. Type of data set: cell-based. To be noted: BT474 cells in the presence of CPT, crosslinked.

In data set [1] the test system is γH2AX foci in BT474 cells. The experiment in a line: Immunofluorescent detection of γH2AX foci. Type of data set: cell-based, Human. Conditions: 2 μM CPT 2 hours, 1 hour repair. How it is done:
FIG. 3. CUL4B^k/d BT474 cells are susceptible to CPT-induced DNA damage. A) Persistent DNA damage in CPT-treated BT474-CUL4B^k/d cells. Control or CUL4B^k/d BT474 cells were treated with 2 μM of CPT for the indicated time periods, replenished with CPT-free fresh medium, incubated at 37° C. for 1 hour to repair DNA damage, and subjected to immunoblotting with the anti-γH2AX antibody to determine the extent of DNA damage. B) Immunofluorescent detection of γH2AX foci in control or CUL4B^k/d BT474 cells following CPT treatment. BT474 cells were infected with lentiviral control shRNA (shCtrl) or shCUL4B, treated with 2 μM CPT for 2 hours and replenished with CPT-free fresh medium, incubated at 37° C. for 1 hour to repair DNA damage. γH2AX foci were detected by immunofluorescent assay with the rabbit anti-γH2AX antibody and goat anti-rabbit secondary antibody conjugated with cy3 (red). Nuclei were stained with DAPI (blue). C, D) Percentage of γH2AX-positive cells and number of persistent γH2AX foci in a total of 300 γH2AX-positive cells. All values were presented as mean±S.E. Statistical significance was assessed by a two-tailed unpaired Student t-test (***: p<0.001).
Cells were initially grown on chamber slides. […] After PBS washes, cells were mounted with FluroSave™ Reagent (Calbiochem), and visualized under the fluorescence microscope, and images were captured via camera.

In data set [2] the test system is BT474 cells. The experiment in a line: Apoptosis by Western blotting of cleaved caspase-3 and PARP. In kind it is cell-based, Human. Conditions: CUL4B-silenced BT474 cells vs control cells. As for the experimental part: FIG. 4. Marked enhancement of apoptosis in BT474-CUL4B^k/d cells following CPT treatment. A, B) Control (shCtrl) or CUL4B^k/d BT474 (shCUL4B) cells were treated with indicated concentrations of CPT for 72 hours (A) or 100 nM CPT for 1, 2 and 3 days (B). Cells were then lysed and immunoblotted with antibodies against native or cleaved caspase 3 or PARP to measure the induction of apoptosis. C) Control, CUL4A^k/d and CUL4B^k/d BT474 cells were treated with 100 nM CPT for 3 days. Cell lysates were prepared and immunoblotted with antibodies against native or cleaved PARP.
DNA double stranded breaks are one of the most cytotoxic lesions as persistence of γH2AX foci after the initial induction of DNA damage leads to apoptosis. To examine whether CUL4B knockdown affects the sensitivity of breast cancer cells to CPT-induced apoptosis, BT474 cells were treated with CPT and analyzed for induction of apoptosis, as exemplified by cleavage of caspase-3 and PARP.

In data set [3] the test system is BT474 cells. The experiment in a line: XTT Cell Proliferation Assay, growth rate of BT474 cells in vitro. Conditions: knockdown cells vs control, no drug. In kind it is cell-based, Human. How it is done:
FIG. 5. CUL4B inactivation sensitized BT474 xenograft tumors to topotecan. Stable TGL-BT474 cells (BT474 cells stably expressing GFP-luciferase reporter) were established by retroviral transduction and FACS sorting. The resulting TGL-BT474 cells were infected with recombinant lentiviruses expressing non-targeting shCtrl, shCUL4A or shCUL4B, followed by selection of infected cells with 4 μg/ml puromycine for one week. A) Knockdown of endogenous CUL4A and 4B were verified by immunoblotting. […] Statistical significance in tumor burden between control and CUL4A^k/d or CUL4B^k/d xenograph are assessed by a two-tailed unpaired student t-test (***: p<0.001). […] The same number of control, CUL4A^k/d and CUL4B^k/d BT474 cells were seeded to 96-well plates and cell proliferation was measured using the XTT Cell Proliferation Assay Kit. […] Statistical significance in cellular rate between control cells and CUL4A^k/d or CUL4B^k/d cells are assessed by student's t-test. […] 1×10^7 of control, CUL4A^k/d or CUL4B^k/d TGL-BT474 cells were injected subcutaneously in the right flank of each mouse of athymic Nu/J nude mice, and tumor burden was measured by bioluminescent imaging (E). On the 22nd day, tumors were collected, and the weight of exercised tumors was measured after mice were sacrificed (F).
(In general: Tetrazolium dyes change colour on reduction, which living cells bring about.)

T1 sequence (P11387 2-765 limits assumed): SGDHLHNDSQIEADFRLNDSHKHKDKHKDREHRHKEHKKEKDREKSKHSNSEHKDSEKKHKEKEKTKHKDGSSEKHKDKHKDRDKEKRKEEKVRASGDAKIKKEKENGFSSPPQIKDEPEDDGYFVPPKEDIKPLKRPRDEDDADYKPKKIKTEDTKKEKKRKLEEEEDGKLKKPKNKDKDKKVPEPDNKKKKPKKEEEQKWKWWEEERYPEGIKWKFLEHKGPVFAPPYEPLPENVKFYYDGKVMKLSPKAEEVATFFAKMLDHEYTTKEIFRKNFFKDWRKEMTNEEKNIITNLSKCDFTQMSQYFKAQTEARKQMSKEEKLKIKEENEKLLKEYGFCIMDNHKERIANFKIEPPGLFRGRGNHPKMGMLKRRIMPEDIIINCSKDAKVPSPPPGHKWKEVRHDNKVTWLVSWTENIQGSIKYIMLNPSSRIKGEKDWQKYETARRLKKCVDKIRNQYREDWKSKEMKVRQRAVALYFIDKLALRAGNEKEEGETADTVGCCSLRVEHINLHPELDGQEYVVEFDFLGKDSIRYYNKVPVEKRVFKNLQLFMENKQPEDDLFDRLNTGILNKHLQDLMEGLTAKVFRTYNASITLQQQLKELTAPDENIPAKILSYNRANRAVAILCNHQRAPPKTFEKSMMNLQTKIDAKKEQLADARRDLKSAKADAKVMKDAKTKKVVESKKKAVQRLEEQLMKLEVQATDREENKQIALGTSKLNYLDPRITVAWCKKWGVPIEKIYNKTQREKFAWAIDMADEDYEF
T1 sequence (Q13620 whole entry partner): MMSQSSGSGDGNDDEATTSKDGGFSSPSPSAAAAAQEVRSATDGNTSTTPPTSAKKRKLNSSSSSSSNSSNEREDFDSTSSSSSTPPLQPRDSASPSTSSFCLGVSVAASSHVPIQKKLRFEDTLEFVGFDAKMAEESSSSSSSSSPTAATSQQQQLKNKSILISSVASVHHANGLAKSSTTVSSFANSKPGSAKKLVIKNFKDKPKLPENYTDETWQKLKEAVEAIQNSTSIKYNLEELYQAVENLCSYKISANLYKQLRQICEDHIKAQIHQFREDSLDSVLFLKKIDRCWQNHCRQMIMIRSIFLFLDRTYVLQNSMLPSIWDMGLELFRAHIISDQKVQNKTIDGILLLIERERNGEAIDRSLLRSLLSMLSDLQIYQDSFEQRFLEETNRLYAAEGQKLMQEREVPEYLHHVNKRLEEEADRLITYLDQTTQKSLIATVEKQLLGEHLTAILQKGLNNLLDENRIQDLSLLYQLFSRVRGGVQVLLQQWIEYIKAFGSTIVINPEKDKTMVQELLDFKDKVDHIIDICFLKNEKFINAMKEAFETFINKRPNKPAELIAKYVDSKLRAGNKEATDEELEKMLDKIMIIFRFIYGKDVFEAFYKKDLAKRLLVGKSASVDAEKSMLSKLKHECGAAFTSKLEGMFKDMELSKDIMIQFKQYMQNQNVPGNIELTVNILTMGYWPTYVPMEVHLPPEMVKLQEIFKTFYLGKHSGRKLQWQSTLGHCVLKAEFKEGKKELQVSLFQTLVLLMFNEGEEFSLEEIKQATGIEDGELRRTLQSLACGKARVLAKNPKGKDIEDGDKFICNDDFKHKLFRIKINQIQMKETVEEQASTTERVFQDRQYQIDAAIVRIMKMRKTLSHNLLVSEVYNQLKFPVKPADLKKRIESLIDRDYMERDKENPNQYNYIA
Description for CUL4B-Top1 interaction: BT474 cells were infected with lentiviral shCUL4B, shCUL4A or control non-targeting shRNA, and selected for stable CUL4B^k/d or CUL4A^k/d cells upon treatment with puromycin. Following treatment with CPT (50 μM) for 1 hour, cells were replenished with CPT-free fresh medium and incubated at 37° C. for 30 minutes. Top1 degradation was assessed by immunoblotting with an anti-Top1 antibody. Levels of α-tubulin were measured as a loading control. B) Association of CUL4B with Top1 following CPT treatment. BT474 cells were treated with proteosome inhibitor MG132 (15 μM) for 3 hours, and were subjected to crosslinking with 0.2 mM Dithiobis[succinimidyl propionate](DSP) for the last 30 min at room temperature. Cell lysates were prepared, and immunoprecipitated with the anti-Top1 or anti-CUL4B antibodies, and then immunoblotted using antibodies against CUL4B or Top1, respectively. […] Top1 degradation was assessed by immunoblotting with the anti-Top1 antibody. Levels of α-tubulin were measured as a loading control. […] Statistical significance in cellular response to CPT between control BT474 cells and CUL4A^k/d or CUL4B^k/d cells were assessed by a two-tailed unpaired student t-test (***: p<0.001). […] Statistical significance in cellular response to camptothecin between control cells and CUL4A^k/d or CUL4B^k/d BT474 cells are assessed by student's t-test. […]

Take `CC[C@@]1(O)C(=O)OCc2c1cc1n(c2=O)Cc2cc3ccccc3nc2-1` [CPT, (S)-4-ethyl-4-hydroxy-1H-pyrano[3′,4′:6,7]indolizino[1,2-b]quinoline-3,14-(4H, 12H)-dione]: on CUL4B-Top1 interaction, the “Association of Top1 with CUL4B” value is “co-immunoprecipitated”. In addition, the “Cells with accumulation of γH2AX foci” value was found to be 50% in data set [1] (CPT-treated CUL4B k/d BT474 cells) and 20% in data set [1] (CPT-treated control BT474 cells). In addition, the “Induction of apoptosis (cleaved caspase-3 and PARP) post-CPT treatment” value in the data set with BT474 cells [2] is “robust induction of apoptosis”.

With “shCUL4B: lentiviral shRNA CUL4B sequence purchased from Sigma Aldrich, reduces CUL4B expression (CCGGGCAGAATTTAAAGAGGGTAAACTCGAGTTTACCCTCTTTAAATTCTGCTTTTT)”, the “Growth rate of cultured BT474 cells in vitro” value with BT474 cells [3] is “no effect”.
